For 22 compounds, IC50 and EC50 results are on record in patent US11584747B2, “Substituted pyridopyrimidinonyl compounds useful as T cell activators” (BRISTOL-MYERS SQUIBB COMPANY, priority 2019, dated 2023).

Read-outs that look alike come from different tables or passages of the source.

One experiment addresses human DGKζ (Homo sapiens (Human), UniProt Q13574). Put plainly: DGKζ LIPGLO assay (extruded liposome substrate, ADP-Glo luminescence). The format is biochemical.
A further experiment deals with human DGKα (Homo sapiens (Human), UniProt P23743). Briefly: DGKα LIPGLO assay (extruded liposome substrate, ADP-Glo luminescence). In kind it is biochemical. For orientation: ADP-Glo turns the ADP formed in a reaction into a luminescent signal.
In experiment [1] the test system is human venous whole blood (IFN-γ). Briefly: Human whole blood IFN-γ assay. The format is cell-based. The procedure: Human venous whole blood (22.5 μL per well), obtained from healthy donors, was pre-treated with compounds for one hour at 37° C. in a humidified 95% air/5% CO2 incubator. The blood was stimulated with 2.5 μL anti-human CD3 and anti-CD28 mAb at a final concentration of 1 μg/mL each for 24 hours at 37° C. IFN-γ in the supernatants was measured using AlphLISA kit (Cat #AL217).

The mark [2] stands for this setting: liposome assay, read-out: DGK zeta LIPGLO IC50.
Where [3] appears, read: liposome assay, read-out: DGK alpha LIPGLO IC50.
Where [4] appears, read: whole blood, normalized to 3 μM reference compound as 100% activation, read-out: IFN-γ Whole Blood Normalized EC50.
Where [5] appears, read: Homo sapiens, whole blood, normalized to 3 μM reference compound as 100% activation, read-out: IFN-γ Whole Blood Normalized EC50.

Chain of human DGKζ (Q13574 other isoform, or with tags, fused parts or gaps): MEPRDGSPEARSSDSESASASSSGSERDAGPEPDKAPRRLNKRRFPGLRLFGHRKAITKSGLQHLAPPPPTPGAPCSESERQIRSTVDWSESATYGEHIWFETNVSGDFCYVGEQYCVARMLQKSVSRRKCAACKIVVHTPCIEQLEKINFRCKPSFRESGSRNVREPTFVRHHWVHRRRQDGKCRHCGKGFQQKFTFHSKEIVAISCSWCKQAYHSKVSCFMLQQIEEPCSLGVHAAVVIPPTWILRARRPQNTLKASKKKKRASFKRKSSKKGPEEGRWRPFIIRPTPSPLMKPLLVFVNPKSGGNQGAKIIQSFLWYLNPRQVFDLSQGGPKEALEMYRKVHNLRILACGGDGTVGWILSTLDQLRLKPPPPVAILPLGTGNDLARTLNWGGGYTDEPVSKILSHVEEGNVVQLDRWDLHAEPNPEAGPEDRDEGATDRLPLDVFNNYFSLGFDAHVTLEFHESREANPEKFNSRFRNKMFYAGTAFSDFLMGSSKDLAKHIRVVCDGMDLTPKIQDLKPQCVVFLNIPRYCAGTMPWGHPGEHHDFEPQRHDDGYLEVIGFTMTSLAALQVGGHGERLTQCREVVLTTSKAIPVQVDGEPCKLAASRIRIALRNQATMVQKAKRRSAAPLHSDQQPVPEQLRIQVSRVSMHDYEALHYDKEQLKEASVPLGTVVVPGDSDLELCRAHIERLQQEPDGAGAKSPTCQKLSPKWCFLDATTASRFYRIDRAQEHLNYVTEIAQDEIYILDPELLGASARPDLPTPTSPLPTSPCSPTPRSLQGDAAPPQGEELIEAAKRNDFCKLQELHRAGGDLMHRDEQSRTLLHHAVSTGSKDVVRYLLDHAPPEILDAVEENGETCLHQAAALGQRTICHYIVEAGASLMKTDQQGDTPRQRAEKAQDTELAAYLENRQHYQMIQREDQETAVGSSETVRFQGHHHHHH
Chain of human DGKα (P23743 whole entry, looked up): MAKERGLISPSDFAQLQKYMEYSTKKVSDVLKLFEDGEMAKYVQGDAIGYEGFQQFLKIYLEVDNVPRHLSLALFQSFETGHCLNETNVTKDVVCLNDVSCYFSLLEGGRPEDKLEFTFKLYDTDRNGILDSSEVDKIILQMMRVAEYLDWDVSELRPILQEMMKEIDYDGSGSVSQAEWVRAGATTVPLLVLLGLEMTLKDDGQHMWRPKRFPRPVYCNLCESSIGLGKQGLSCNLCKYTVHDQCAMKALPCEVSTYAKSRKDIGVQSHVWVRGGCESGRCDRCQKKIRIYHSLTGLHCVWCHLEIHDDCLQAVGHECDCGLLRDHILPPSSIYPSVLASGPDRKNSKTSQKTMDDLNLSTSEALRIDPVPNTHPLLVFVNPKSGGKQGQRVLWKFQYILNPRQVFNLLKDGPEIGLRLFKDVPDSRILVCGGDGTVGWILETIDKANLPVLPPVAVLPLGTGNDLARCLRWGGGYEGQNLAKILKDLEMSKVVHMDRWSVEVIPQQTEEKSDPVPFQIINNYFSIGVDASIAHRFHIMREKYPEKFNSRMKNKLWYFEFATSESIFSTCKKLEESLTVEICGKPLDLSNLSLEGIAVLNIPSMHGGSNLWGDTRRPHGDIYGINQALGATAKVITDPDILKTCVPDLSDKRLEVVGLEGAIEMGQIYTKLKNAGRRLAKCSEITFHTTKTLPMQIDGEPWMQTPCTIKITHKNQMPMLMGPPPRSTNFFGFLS

A word on the IC50: it is the midpoint of a concentration-inhibition curve. Usually EC50 stands for the concentration giving half of the maximal effect. Consider `CC(c1ccc(OC(F)(F)F)c(F)c1)N1C[C@H](C)N(c2nc(=O)n(C)c3ccc(C#N)nc23)C[C@H]1C` (single isomer, unassigned) [Example 161], for which the results for the IC50 on human DGKζ (setting [2]) and at human DGKα (setting [3]) were 1210 nM and 2100 nM, respectively. Also, in experiment [1] (setting [4]), the EC50 amounted to 4010 nM.

As to `CC[C@H]1CN(C(C)c2ccc(C(F)(F)F)nc2)[C@H](CC)CN1c1nc(=O)n(C)c2ccc(C#N)nc12` (single isomer, unassigned) [Example 44], the IC50 at human DGKζ (setting [2]) stood at 21 nM; on human DGKα (setting [3]) it was 85 nM. In addition, the EC50 in experiment [1] (setting [4]) is 260 nM.

As to `C[C@@H]1CN(c2nc(=O)n(C)c3ccc(C#N)nc23)[C@@H](C)CN1C(c1ccc(F)cc1)c1nc(C2CC2)no1` (single isomer, unassigned) [Example 106], the IC50 on human DGKζ (setting [2]) is 130 nM; at human DGKα (setting [3]), 39 nM. Moreover, in experiment [1] (setting [4]), the EC50 is 240 nM.

For `C[C@H]1CN(C(c2ccc(F)cc2)c2ccc(C(F)(F)F)cn2)[C@H](CO)CN1c1nc(=O)n(C)c2ccc(C#N)nc12` (single isomer, unassigned) [Example 182], the results for the IC50 at human DGKζ (setting [2]) and on human DGKα (setting [3]) were 2030 nM and 430 nM, respectively. Also, the EC50 in experiment [1] (setting [4]) is 2530 nM.

`CC[C@H]1CN(C(C)c2ccc(OCC3CC3)cc2F)[C@H](CC)CN1c1nc(=O)n(C)c2ccc(C#N)nc12` (single isomer, unassigned) [Example 33]: the IC50 at human DGKζ (setting [2]) was 5930 nM; at human DGKα (setting [3]), 2560 nM. Further, the EC50 in experiment [1] (setting [4]) came out at 3830 nM.

With `CC[C@@H]1CN(c2nc(=O)n(C)c3ccc(C#N)nc23)[C@@H](C)CN1C(C)c1ccc(C2CC2)cc1` (single isomer, unassigned) [Example 63], the IC50 at human DGKζ (setting [2]) was 21 nM; at human DGKα (setting [3]), 40 nM. The EC50 in experiment [1] (setting [4]) worked out at 70 nM.

Regarding `CC[C@@H]1CN(c2nc(=O)n(C)c3ccc(C#N)nc23)[C@@H](C)CN1C(c1ccc(F)cc1)c1cnc(C2CC2)s1` (single isomer, unassigned) [Example 103], the IC50 at human DGKζ (setting [2]) was 36 nM; at human DGKα (setting [3]), 170 nM. In experiment [1] (setting [4]), the EC50 is 94 nM.

Turning to `COC[C@@H]1CN(c2nc(=O)n(C)c3ccc(C#N)nc23)[C@@H](C)CN1C(C)c1ccc(C(F)(F)F)cc1` (single isomer, unassigned) [Example 174], the results for the IC50 on human DGKζ (setting [2]) and at human DGKα (setting [3]) were 140 nM and 590 nM, respectively. Moreover, in experiment [1] (setting [4]), the EC50 is 140 nM.

Consider `Cc1ccc(C(c2ccc(C)cc2)N2C[C@H](C)N(c3nc(=O)n(C)c4ccc(C#N)nc34)C[C@H]2C)cc1` [Example 125], for which the values for the IC50 on human DGKζ (setting [2]) and on human DGKα (setting [3]) were 990 nM and 740 nM, respectively. Further, in experiment [1] (setting [5]), the EC50 was determined as 500 nM.

As to `CC[C@@H]1CN(c2nc(=O)n(C)c3ccc(C#N)nc23)[C@@H](C)CN1C(c1ccc(F)cc1)c1ccc(C2CC2)cn1` (single isomer, unassigned) [Example 76], the IC50 on human DGKζ (setting [2]) is 23 nM; at human DGKα (setting [3]), 79 nM. In addition, in experiment [1] (setting [4]), the EC50 was determined as 180 nM.

For the compound `CC[C@@H]1CN(c2nc(=O)n(C)c3ccc(C#N)nc23)[C@@H](C)CN1C(C)c1ccc(C2CC2)cc1` (single isomer, unassigned) [Example 64], the results for the IC50 at human DGKζ (setting [2]) and at human DGKα (setting [3]) were 760 nM and 340 nM, respectively. For the same compound, the EC50 in experiment [1] (setting [4]) stood at 690 nM.

As to `CC[C@H]1CN(C(c2ccc(F)cc2)c2ccc(C(F)(F)F)cn2)[C@H](C)CN1c1nc(=O)n(C)c2ccc(C#N)nc12` (stereo partly drawn) [Example 114, 4-((2S,5R)-2-ethyl-4-((4-fluorophenyl)(5-(trifluoromethyl)pyridin-2-yl)methyl)-5-methylpiperazin-1-yl)-1-methyl-2-oxo-1,2-dihydropyrido[3,2-d]pyrimidine-6-carbonitrile], the results for the IC50 on human DGKζ (setting [2]) and on human DGKα (setting [3]) were 440 nM and 160 nM, respectively. In experiment [1] (setting [4]), the EC50 was determined as 470 nM.

Consider `CC[C@H]1CN(C(C)c2ccc(C(F)(F)F)cc2)[C@H](C)CN1c1nc(=O)n(C)c2ccc(C#N)nc12` (stereo partly drawn) [Example 116, 4-((2S,5R)-2-ethyl-5-methyl-4-(1-(4-(trifluoromethyl)phenyl)ethyl)piperazin-1-yl)-1-methyl-2-oxo-1,2-dihydropyrido[3,2-d]pyrimidine-6-carbonitrile], for which the IC50 was found to be 2110 nM at human DGKζ (setting [2]) and 1000 nM on human DGKα (setting [3]). The EC50 in experiment [1] (setting [4]) came to 1430 nM.

For `CC[C@@H]1CN(c2nc(=O)n(C)c3ccc(C#N)nc23)[C@@H](C)CN1C(c1ccc(F)cc1)c1cccc(C(F)(F)F)n1` (single isomer, unassigned) [Example 65], the IC50 on human DGKζ (setting [2]) was found to be 100 nM; on human DGKα (setting [3]), 1190 nM. Moreover, in experiment [1] (setting [4]), the EC50 worked out at 360 nM.

In the case of `COC[C@@H]1CN(c2nc(=O)n(C)c3ccc(C#N)nc23)[C@@H](C)CN1C(c1ccc(F)cc1)c1ccc(C(F)(F)F)cn1` (single isomer, unassigned) [Example 178], the results for the IC50 at human DGKζ (setting [2]) and on human DGKα (setting [3]) were 130 nM and 290 nM, respectively. Also, in experiment [1] (setting [5]), the EC50 amounted to 91 nM.

In the case of `CC[C@H]1CN(C(C)c2ccc3c(c2)OC(F)(F)O3)[C@H](CC)CN1c1nc(=O)n(C)c2ccc(C#N)nc12` (single isomer, unassigned) [Example 15], the IC50 worked out at 1220 nM on human DGKζ (setting [2]) and 490 nM at human DGKα (setting [3]). Also, the EC50 in experiment [1] (setting [4]) amounted to 1740 nM.

Take `CC(c1ccc(OC(C)(C)C#N)cc1)N1C[C@H](C)N(c2nc(=O)n(C)c3ccc(C#N)nc23)C[C@H]1C` (stereo partly drawn) [Example 377, 4-((2S,5R)-4-(1-(4-((2-cyanopropan-2-yl)oxy)phenyl)ethyl)-2,5-dimethylpiperazin-1-yl)-1-methyl-2-oxo-1,2-dihydropyrido[3,2-d]pyrimidine-6-carbonitrile]: the IC50 at human DGKζ (liposome (LIPGLO) assay, read-out: DGK zeta (liposome assay) IC50) came to 370 nM; on human DGKα (liposome (LIPGLO) assay, read-out: DGK alpha (liposome assay) IC50), 240 nM. In addition, the EC50 in experiment [1] (human whole blood, anti-CD3 plus anti-CD28 stimulation, 24 hours, read-out: IFN-γ Whole Blood EC50) worked out at 520 nM.

For `C[C@@H]1CN(c2nc(=O)n(C)c3ccc(C#N)nc23)[C@@H](C)CN1Cc1cc(F)c(F)cc1Cl` [Example 134, 4-((2S,5R)-4-(2-chloro-4,5-difluorobenzyl)-2,5-dimethylpiperazin-1-yl)-1-methyl-2-oxo-1,2-dihydropyrido[3,2-d]pyrimidine-6-carbonitrile], the IC50 was determined as 780 nM at human DGKζ (setting [2]) and 4260 nM on human DGKα (setting [3]). Besides, in experiment [1] (setting [5]), the EC50 came out at 3670 nM.

As to `C[C@@H]1CN(c2nc(=O)n(C)c3ccc(C#N)nc23)[C@@H](C)CN1C(c1ccc(F)cc1)c1csc(C(F)(F)F)n1` (single isomer, unassigned) [Example 171], the IC50 at human DGKζ (setting [2]) is 560 nM; on human DGKα (setting [3]), 1560 nM. Besides, in experiment [1] (setting [4]), the EC50 is 220 nM.

With `CC(c1ccc(OC(F)(F)F)cc1)N1C[C@H](C)N(c2nc(=O)n(C)c3ccc(C#N)nc23)C[C@H]1C` (single isomer, unassigned) [Example 132], the IC50 on human DGKζ (setting [2]) is 5950 nM; on human DGKα (setting [3]) it was 700 nM. Moreover, the EC50 in experiment [1] (setting [4]) is 2650 nM.

For `CC[C@@H]1CN(c2nc(=O)n(C)c3ccc(C#N)nc23)[C@@H](C)CN1C(c1ccc(F)cc1)c1cnc(C2CC2)s1` (single isomer, unassigned) [Example 104], the IC50 at human DGKζ (setting [2]) came out at 110 nM; on human DGKα (setting [3]), 470 nM. In experiment [1] (setting [4]), the EC50 worked out at 210 nM.

As to `CC(c1ccc2c(c1)OC(F)(F)O2)N1C[C@H](C)N(c2nc(=O)n(C)c3ccc(C#N)nc23)C[C@H]1C` (single isomer, unassigned) [Example 166], the IC50 on human DGKζ (setting [2]) is 330 nM; on human DGKα (setting [3]) it was 5390 nM. Also, in experiment [1] (setting [4]), the EC50 amounted to 500 nM.
